Test results as given in ChEMBL document CHEMBL1131768, “Orally bioavailable nonpeptide vitronectin receptor antagonists containing 2-aminopyridine arginine mimetics” (Bioorg Med Chem Lett, 1999).

How the values were obtained:
[1] = in vivo; conditions: dog, iv
[2] = in vivo; conditions: rat, po
[3] = in vivo; conditions: dog, po
[4] = in vivo; conditions: dog, iv; remark: listed apart in the source
[5] = in vivo; conditions: rat, iv
[6] = in vivo; conditions: rat, iv; remark: listed apart in the source

`CN1Cc2cc(C(=O)NCc3cccc(N)n3)ccc2N[C@@H](CC(=O)O)C1=O` showed a clearance [1] of 7.8 mL/min/kg, a bioavailability [2] of 13% and a bioavailability [3] of 10%. It also gave a half-life [4] of 47 min, a clearance [5] of 63 mL/min/kg and a half-life [6] of 45 min.
